According to PMC5460289, “Identification of New Shikonin Derivatives as Antitumor Agents Targeting STAT3 SH2 Domain” (Scientific Reports, 2017):

How the values were obtained:
Format in all cases: cell-based, human
[1] = tested on: IL-6-induced STAT3 phosphorylation in MDA-MB-231 cells; assay: IL-6 induction of STAT3 phosphorylation (Western blot); settings: 2 μM pretreatment 24 h, IL-6 (20 ng/mL) 30 min
Description: (§1) Figure 6 (A) PMM-172 suppressed constitutive pSTAT3 (Tyr705) in a dose-dependent manner. (B) PMM-172 suppressed constitutive pSTAT3 (Tyr705) in a time-dependent manner. (C) MDA-MB-231 cells were treated with IL-6 (20 ng/mL) or vehicle for 30 min, with or without pretreatment with PMM-172 (2 μM) for 24 h. PMM-172 inhibited IL-6 induced phosphorylation of STAT3. (D) Stattic suppressed constitutive pSTAT3 (Tyr705) in a dose-dependent manner. (E) Stattic suppressed constitutive pSTAT3 (Tyr705) in a time-dependent manner. (F) Tyrosine phosphorylation of two STAT family proteins STAT1 and STAT5 were detected with specific antibodies. […] Data were shown as mean ± SD of three independent experiments. *P < 0.05, **P < 0.01. Cropped blots/gels were used in the figure and the gels had been run under the same experimental conditions; the full-length blots/gels are presented in Supplementary Figure S2.
We further investigated whether PMM-172 could inhibit IL-6-induced STAT3 phosphorylation in MDA-MB-231 cells.
Cells were seeded in 10 cm plates and allowed to adhere overnight. The following day, the specimen was serum starved for 24 h. The specimen was then treated with or without tested agents at the dose of 2 μM. […] Cells were then harvested after 30 min and analyzed by Western blot.

MDA-MB-231 cells = assay: Annexin V/PI double staining apoptosis assay (flow cytometry); settings: for percentage of cell apoptosis (early and late apoptotic cells): 24 h, MDA-MB-231, control 3.12%
Description: To determine whether PMM-172 induced apoptosis, Annexin V/PI double staining assay was conducted. MDA-MB-231 cells were treated with various concentrations of PMM-172 for 24 h, and the percentage of apoptotic cells was markedly elevated in a dose-dependent manner. Likewise, MDA-MB-231 cells were treated with corresponding doses of Stattic. […] The percentages of cell apoptosis 3.12%, 8.12%, 16.81%, 62.74% corresponded to the concentration of PMM-172 0, 2, 4 and 8 μM, respectively, including both the early and the late apoptotic cells. Clearly, PMM-172 can cause cell apoptosis more effectively than Stattic. Moreover, an extend time-course apoptosis analysis of MDA-MB-231 cells treated with 4 μM PMM-172 was carry out. […] To further assess the pro-apoptotic effect of PMM-172, we evaluated the cleavage of poly (ADP-ribose) polymerase (PARP) and caspase 3 in MDA-MB-231 cells after 24 h treatment with PMM-172. In this case, the active form of PARP involved in DNA repair and programmed cell death is considered as the hallmark of apoptosis.
Figure 4 The effect of PMM-172 on the cell apoptosis of MDA-MB-231 cells. (A) MDA-MB-231 cells were treated with various concentrations of PMM-172 or Stattic for 24 h, or treated with 4 μM PMM-172 for different time. Apoptosis was analyzed by flow cytometry by using Annexin V/PI double staining. (B) The percentage of apoptotic cells in MDA-MB-231 cells treated with various concentrations of PMM-172 for 24 h. (C) The percentage of apoptotic cells in MDA-MB-231 cells treated with 4 μM PMM-172 for different time. (D) The percentage of apoptotic cells in MDA-MB-231 cells treated with various concentrations of Stattic for 24 h. (E) PARP and caspase 3 cleavage in MDA-MB-231 cells after treated with various concentrations of PMM-172 for 24 h were detected by using Western blot analysis. The relative expression level was analyzed by Image J software. […]
Approximately 10^5 cells/well were plated in a 24 well plate and allowed to adhere. […] The samples were then analyzed by a FACSCalibur flow cytometer (Becton Dickinson, San Jose, CA, USA).

STAT5 = assay: Western blot of STAT5 phosphorylation and expression; settings: MDA-MB-231
Description: as §1
Subsequently, we evaluated the phosphorylation level of other STAT family proteins including STAT1 and STAT5.
Cells were rinsed twice with cold PBS and then lysed with RIPA buffer containing a protease inhibitor mixture at 1:100 dilution on ice for 30 min. Insoluble components of cell lysates were removed by centrifugation (4 °C, 12000 rmp, 10 min), and protein concentrations were measured using a Pierce BCA protein assay kit. […]

[2] = tested on: pSTAT3 (Tyr705) in MDA-MB-231 cells; assay: Western blot of constitutive STAT3 activation
From the text: It has been well recognized that the aberrant activation of STAT3 contributes to malignant transformation and tumorgenesis, and its activity is ultimately dependent upon phosphorylation of residue Y705. […] In this study, the ability of PMM-172 and Stattic inhibiting the constitutive STAT3 activation in MDA-MB-231 cells was investigated. […] We further measured STAT3 phosphorylation at Tyr705 in a time-course experiment.
as §1
Cells were rinsed twice with cold PBS and then lysed with RIPA buffer containing a protease inhibitor mixture at 1:100 dilution on ice for 30 min. Insoluble components of cell lysates were removed by centrifugation (4 °C, 12000 rmp, 10 min), and protein concentrations were measured using a Pierce BCA protein assay kit. Proteins were separated by sodium dodecyl sulfate-polyacrylamide gel electrophoresis (SDS-PAGE) and transferred from the gel onto polyvinylidene difluoride (PVDF) membranes. The membranes were blocked with 5% skim milk in TBST buffer for 1 h at room temperature, and then incubated with corresponding primary antibodies diluted in 5% milk-TBST solution at 4 °C with gentle shaking overnight. After washing five times (5 min each), corresponding HRP-conjugated secondary antibodies were incubated for 1 h at room temperature. Immunoreactive bands were visualized using an ECL detection kit (Invitrogen, USA) following the manufacturer’s instruction.

## COc1cc(OC)cc(-c2nnc(SCC(=O)O[C@H](CC=C(C)C)C3=CC(=O)c4c(O)ccc(O)c4C3=O)o2)c1 [PMM-172, (R)-1-(5,8-dihydroxy-1,4-dioxo-1,4-dihydronaphthalen-2-yl)-4-methylpent-3-en-1-yl 2-((5-(3,5-dimethoxyphenyl)-1,3,4-oxadiazol-2-yl)thio)acetate]
[1]
  IL-6-induced STAT3 phosphorylation: suppressed IL-6-induced STAT3 phosphorylation
MDA-MB-231 cells; 4 μM
  percentage of cell apoptosis (early and late apoptotic cells): 16.81%
MDA-MB-231 cells; 8 μM
  percentage of cell apoptosis (early and late apoptotic cells): 62.74%
MDA-MB-231 cells; MDA-MB-231, Annexin V/PI
  induction of apoptosis: induced apparent apoptosis in MDA-MB-231 cells in dose- and time- dependent manners
STAT5
  phosphorylation and expression of STAT5: inhibited neither the phosphorylation nor expression
[2]
  STAT3 expression: had no effect on STAT3 expression
  STAT3 phosphorylation at Tyr705, time-course: reduced with the longer treatment
  level of Y705-phosphorylated STAT3 (constitutive), dose series: could reduce the level of Y705-phosphorylated STAT3 in MDA-MB-231 cells in a dose-dependent manner
